Measurements taken from ChEMBL document CHEMBL1201862, “PubChem BioAssay data set” (2004).
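In this assay, cells in 96-well plates receive the compound at five concentrations for 48 hours. Endpoints are linearly interpolated between the surrounding concentrations. Abbreviation: GI50, concentration required for 50% inhibition of growth.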 The source made the active and inactive calls. Cut-off read from the data, not from the text of the source: active = GI50 up to about 1.1 µM and inactive = higher.

Key:
Assay in all cases: DTP human tumour cell line panel, 48 h
RXF 393 = tested on: RXF 393
LOX IMVI = tested on: LOX IMVI
HCT-15 = tested on: HCT-15
T47D = tested on: T47D
BT-549 = tested on: BT-549
ACHN = tested on: ACHN
NCI/ADR-RES = tested on: NCI/ADR-RES
UACC-62 = tested on: UACC-62
Hs-578T = tested on: Hs-578T
SNB-75 = tested on: SNB-75
HL-60 = tested on: HL-60
KM12 = tested on: KM12
NCI-H522 = tested on: NCI-H522
UO-31 = tested on: UO-31
SR = tested on: SR
CAKI-1 = tested on: CAKI-1
DU-145 = tested on: DU-145
MDA-MB-231 = tested on: MDA-MB-231
UACC-257 = tested on: UACC-257
OVCAR-4 = tested on: OVCAR-4

Row | SMILES | GI50 (RXF 393) | GI50 (LOX IMVI) | GI50 (HCT-15) | GI50 (T47D) | GI50 (BT-549) | GI50 (ACHN) | GI50 (NCI/ADR-RES) | GI50 (UACC-62) | GI50 (Hs-578T) | GI50 (SNB-75) | GI50 (HL-60) | GI50 (KM12) | GI50 (NCI-H522) | GI50 (UO-31) | GI50 (SR) | GI50 (CAKI-1) | GI50 (DU-145) | GI50 (MDA-MB-231) | GI50 (UACC-257) | GI50 (OVCAR-4)
1 | NS(=O)(=O)c1cc(C(=O)O)c(O)c2ccccc12 | > 100 µM (inactive) | > 100 µM (inactive) | > 100 µM | > 100 µM (inactive) | > 100 µM (inactive) | > 100 µM (inactive) | > 100 µM (inactive) | > 100 µM (inactive) | 49.7 µM (inactive) | 82.6 µM (inactive) | > 100 µM (inactive) | > 100 µM (inactive) | > 100 µM (inactive) | > 100 µM (inactive) | > 100 µM (inactive) | > 100 µM (inactive) | > 100 µM (inactive) | > 100 µM (inactive) | > 100 µM (inactive) | > 100 µM (inactive)
2 | CCc1nc2cc(/N=N/c3c(O)ccc4ccccc34)ccc2[nH]1 | 12.6 µM (inactive) | 10.1 µM (inactive) | 12.6 µM | 24.3 µM (inactive) | 18.7 µM (inactive) | 17.1 µM (inactive) | 22.3 µM (inactive) | 18.2 µM (inactive) | 21.1 µM (inactive) | 20.6 µM (inactive) | 2.4 µM (inactive) | 11.2 µM (inactive) | 18.1 µM (inactive) | 18.8 µM (inactive) | 2.14 µM (inactive) | 22.4 µM (inactive) | 17 µM (inactive) | 20.7 µM (inactive) | 14.5 µM (inactive) | 14 µM (inactive)
3 | COc1ccc(-c2c(=O)[nH]n3c(=S)[nH]c(-c4ccccc4)nc23)cc1OC | 17.7 µM (inactive) | 17.2 µM (inactive) | 17.3 µM | 20.2 µM (inactive) | 17.4 µM (inactive) | 23.3 µM (inactive) | 21.3 µM (inactive) | 19.1 µM (inactive) | 29.7 µM (inactive) | 24.5 µM (inactive) | 18 µM (inactive) | 17.7 µM (inactive) | 17.5 µM (inactive) | 17 µM (inactive) | 6.9 µM (inactive) | 24.3 µM (inactive) | 23 µM (inactive) | 28.6 µM (inactive) | 24 µM (inactive) | 21 µM (inactive)
4 | CC(=O)C(C)(C)CCC(C)(C)C(C)=O | < 0.01 µM (active) | > 100 µM (inactive) | > 100 µM | > 100 µM (inactive) | > 100 µM (inactive) | > 100 µM (inactive) | > 100 µM (inactive) | > 100 µM (inactive) | > 100 µM (inactive) | > 100 µM (inactive) | > 100 µM (inactive) | > 100 µM (inactive) | > 100 µM (inactive) | > 100 µM (inactive) | > 100 µM (inactive) | > 100 µM (inactive) | > 100 µM (inactive) | > 100 µM (inactive) | > 100 µM (inactive) | > 100 µM (inactive)
5 | Cc1nc(-c2cc3ccccc3oc2=O)cs1 | 38.2 µM (inactive) | > 100 µM (inactive) | > 100 µM | > 100 µM (inactive) | 15.9 µM (inactive) | 52.5 µM (inactive) | 78.5 µM (inactive) | 31.3 µM (inactive) | 18.4 µM (inactive) | < 0.01 µM (active) | > 100 µM (inactive) | > 100 µM (inactive) | 17 µM (inactive) | > 100 µM (inactive) | 59 µM (inactive) | > 100 µM (inactive) | > 100 µM (inactive) | 25.1 µM (inactive) | > 100 µM (inactive) | > 100 µM (inactive)
6 | CC(=O)NCCC1CN(C(=O)/C=C\I)c2ccccc21 (configuration not stated) | 7.29 µM (inactive) | 3.08 µM (inactive) | 7.71 µM | 18.2 µM (inactive) | 21.6 µM (inactive) | 14.5 µM (inactive) | 25.5 µM (inactive) | 13 µM (inactive) | 27.2 µM (inactive) | 17.8 µM (inactive) | 2.7 µM (inactive) | 5.7 µM (inactive) | 1.78 µM (inactive) | 7.69 µM (inactive) | > 33.7 µM (inactive) | 1.73 µM (inactive) | 13.9 µM (inactive) | 4.13 µM (inactive) | 13.8 µM (inactive) | 18.9 µM (inactive)
7 | N#Cc1nc(/C=C/c2ccccc2)oc1N | > 100 µM (inactive) | > 100 µM (inactive) | > 100 µM | > 100 µM (inactive) | 13.1 µM (inactive) | > 100 µM (inactive) | > 100 µM (inactive) | – | > 100 µM (inactive) | > 100 µM (inactive) | > 10 µM (inactive) | > 100 µM (inactive) | 8.2 µM (inactive) | 7.26 µM (inactive) | 0.252 µM (active) | > 100 µM (inactive) | > 100 µM (inactive) | > 100 µM (inactive) | > 100 µM (inactive) | 20.7 µM (inactive)
8 | COc1cc(C2CC(C)(N3CCCC3)Oc3cc4c(cc32)OCO4)cc(OC)c1OC (configuration not stated) | 0.0908 µM (active) | 0.426 µM (active) | 0.12 µM | 5.55 µM (inactive) | 0.794 µM (active) | 0.69 µM (active) | 0.582 µM (active) | – | 0.259 µM (active) | 0.0865 µM (active) | 0.13 µM (active) | 0.182 µM (active) | 0.2 µM (active) | 0.624 µM (active) | 0.488 µM (active) | 0.527 µM (active) | 0.42 µM (active) | 0.145 µM (active) | 0.13 µM (active) | 19.5 µM (inactive)
9 | c1ccc(SCCc2ccncc2)cc1 | > 100 µM (inactive) | > 100 µM (inactive) | > 100 µM | 52.1 µM (inactive) | > 100 µM (inactive) | > 100 µM (inactive) | 58.7 µM (inactive) | > 100 µM (inactive) | > 100 µM (inactive) | > 100 µM (inactive) | 50.6 µM (inactive) | 78.7 µM (inactive) | 31 µM (inactive) | 45.4 µM (inactive) | 19.3 µM (inactive) | 53 µM (inactive) | > 100 µM (inactive) | > 100 µM (inactive) | > 100 µM (inactive) | 98.2 µM (inactive)
10 | Cc1ncc(C/N=C/c2ccc(Cl)cc2)c(N)n1 | > 100 µM (inactive) | > 100 µM (inactive) | > 100 µM | > 100 µM (inactive) | > 100 µM (inactive) | > 100 µM (inactive) | > 100 µM (inactive) | > 100 µM (inactive) | > 100 µM (inactive) | > 100 µM (inactive) | > 100 µM (inactive) | > 100 µM (inactive) | > 100 µM (inactive) | > 100 µM (inactive) | > 100 µM (inactive) | > 100 µM (inactive) | > 100 µM (inactive) | > 100 µM (inactive) | > 100 µM (inactive) | > 100 µM (inactive)
11 | O=[N+]([O-])c1ccc(C(Nc2ccccc2)P(c2ccccc2)c2ccccc2)cc1 (configuration not stated) | > 100 µM (inactive) | > 100 µM (inactive) | > 100 µM | > 100 µM (inactive) | > 100 µM (inactive) | > 100 µM (inactive) | > 100 µM (inactive) | > 100 µM (inactive) | > 100 µM (inactive) | > 100 µM (inactive) | > 100 µM (inactive) | > 100 µM (inactive) | > 100 µM (inactive) | > 100 µM (inactive) | > 100 µM (inactive) | > 100 µM (inactive) | > 100 µM (inactive) | > 100 µM (inactive) | > 100 µM (inactive) | > 100 µM (inactive)
12 | COc1ccc(/C=c2\c(=O)[nH]c3nc4ccccc4c(=O)n23)cc1 | 46.1 µM (inactive) | 45.9 µM (inactive) | 64 µM | 36.5 µM (inactive) | 27.3 µM (inactive) | > 100 µM (inactive) | > 100 µM (inactive) | 42 µM (inactive) | > 100 µM (inactive) | 32.5 µM (inactive) | 36.2 µM (inactive) | 73.5 µM (inactive) | 37.3 µM (inactive) | 44.7 µM (inactive) | 48.2 µM (inactive) | 55.8 µM (inactive) | 61.2 µM (inactive) | > 100 µM (inactive) | 88.9 µM (inactive) | > 100 µM (inactive)
13 | Cc1ccc(/N=N\c2c(O)c(S(=O)(=O)O)cc3cc(S(=O)(=O)O)ccc23)c(C)c1 | > 100 µM (inactive) | > 100 µM (inactive) | > 100 µM | > 100 µM (inactive) | > 100 µM (inactive) | > 100 µM (inactive) | > 100 µM (inactive) | > 100 µM (inactive) | > 100 µM (inactive) | > 100 µM (inactive) | > 100 µM (inactive) | > 100 µM (inactive) | > 100 µM (inactive) | > 100 µM (inactive) | > 100 µM (inactive) | > 100 µM (inactive) | > 100 µM (inactive) | > 100 µM (inactive) | > 100 µM (inactive) | > 100 µM (inactive)
14 | CC(=O)O[C@H]1C(=O)[C@@]2(C)[C@H]([C@H](OC(=O)c3ccccc3)[C@]3(O)C[C@H](OC(=O)[C@H](O)[C@@H](NC(=O)CC(C)C)c4ccccc4)C(C)=C1C3(C)C)[C@]1(OC(C)=O)CO[C@@H]1C[C@@H]2O | 0.0141 µM (active) | 0.00619 µM (active) | 0.547 µM | 0.00399 µM (active) | 0.248 µM (active) | 0.157 µM (active) | > 8.61 µM (inactive) | 0.00475 µM (active) | 0.0018 µM (active) | < 0.001 µM (active) | 0.00111 µM (active) | – | 0.00247 µM (active) | 2.48 µM (inactive) | 0.00171 µM (active) | 0.378 µM (active) | 0.0232 µM (active) | > 10 µM (inactive) | 0.015 µM (active) | > 10 µM (inactive)
